Source: patent US20200206231A1, “TOPICAL PHARMACEUTICAL COMPOSITION, METHOD FOR PRODUCING THE TOPICAL PHARMACEUTICAL COMPOSITION, USE OF TOPICAL PHARMACEUTICAL COMPOSITION AND METHOD FOR TOPICAL TREATMENT OF PSORIASIS, ATOPIC DERMATITIS OR CHRONIC ECZEMA” (BIOLAB SANUS FARMACÊUTICA LTDA., priority 2012, published 2020)

Assays:
Format in all cases: cell-based
Settings in all cases: human keratinocytes + LPS, 48 hours, mean ± standard deviation
TNF-alpha = experiment: Production of TNF-alpha in LPS-stimulated human keratinocyte culture (sandwich ELISA)
Protocol: (§1) the effect of formulation 1 (described in example 1) was evaluated In this study, in the synthesis of inflammatory mediators: IL-1, IL-6, IL-8, IL-10, IL-12, prostaglandin E2 (PGE2), Leukotriene B4 (LBT4), interferon gamma (IFN-gamma) and tumor necrosis factor alpha (TNF-alpha) in a culture of human keratinocytes in basal condition and stimulated with bacterial lipopolysaccharides (LPS), to simulate the inflammatory response.
(§2) Human keratinocytes (Cascade Biologics, USA) were sown in 75 cm^2 bottles (Corning Inc, USA), cultured and expanded in a wet incubator to 37° C. in the presence of CO2, using a specific culture medium. When reaching confluence, cells were seeded in 24 well plates (Nunc, USA) for further incubation with non-toxic dilutions of formulation 1, described in example 1, and for evaluation of proposed mediators.
(§3) Cells were kept in touch with dilutions of the formulations and LPS (Sigma, USA) for 48 hours for further collection of the supernatant and the cell lysate. As a positive control of production of mediators, the cells were kept in touch only with LPS (Sigma, USA) in the same amount administered along with the formulations (samples), and as a basal control, cells alone were used, without the presence of LPS or formulations.
(§4) Quantification of inflammatory mediators (IL-1, IL-6, IL-8, IL-10, IL-12, IFN-gamma and TNF-alpha) was performed using a kit of enzyme-linked immunosorbent assay (sandwich ELISA) commercially available. And the quantification of PGE2 and LBT4 mediators was performed by an ELISA competitive binding assay. The results were expressed in pg/mL, calculated from the values of references obtained with a standard curve constructed with known concentrations of the mediators of interest (table 2).

IL-8 = experiment: Production of IL-8 in LPS-stimulated human keratinocyte culture (sandwich ELISA)
Protocol: as §1, §2
(§5) The evaluated concentrations were 0.0002; 0.0001; and 0.000025 and 0.00005% (w/v).
as §3, §4

IL-12 = experiment: Production of IL-12 in LPS-stimulated human keratinocyte culture (sandwich ELISA)
Protocol: as §1, §2, §5, §3, §4

IL-1 = experiment: Production of IL-1 in LPS-stimulated human keratinocyte culture (sandwich ELISA)
Protocol: as §1, §2, §5, §3, §4

LTB4 = experiment: Production of LTB4 in LPS-stimulated human keratinocyte culture (ELISA competitive binding assay)
Protocol: as §1, §2, §5, §3, §4

IL-10 = experiment: Production of IL-10 in LPS-stimulated human keratinocyte culture (sandwich ELISA)
Protocol: as §1, §2, §5, §3, §4

Row | Structure (SMILES) | Production of inflammatory mediators: TNF-alpha (TNF-alpha; Dilution: 0.00005 (% w/v)) [pg/mL] | Production of inflammatory mediators: TNF-alpha (TNF-alpha; Dilution: 0.0002 (% w/v)) [pg/mL] | Production of inflammatory mediators: IL-8 (IL-8; Dilution: 0.00005 (% w/v)) [pg/mL] | Production of inflammatory mediators: IL-8 (IL-8; Dilution: 0.0002 (% w/v)) [pg/mL] | Production of inflammatory mediators: IL-12 (IL-12; Dilution: 0.00005 (% w/v)) [pg/mL] | Production of inflammatory mediators: IL-12 (IL-12; Dilution: 0.0002 (% w/v)) [pg/mL] | Production of inflammatory mediators: IL-1 (IL-1; Dilution: 0.00005 (% w/v)) [pg/mL] | Production of inflammatory mediators: IL-1 (IL-1; Dilution: 0.0002 (% w/v)) [pg/mL] | Production of inflammatory mediators: LTB4 (LTB4; Dilution: 0.00005 (% w/v)) [pg/mL] | Production of inflammatory mediators: LTB4 (LTB4; Dilution: 0.0002 (% w/v)) [pg/mL] | Production of inflammatory mediators: IL-10 (IL-10; Dilution: 0.00005 (% w/v)) [pg/mL] | Production of inflammatory mediators: IL-10 (IL-10; Dilution: 0.0002 (% w/v)) [pg/mL]
1 | CC(C)=CCC[C@@](C)(O)[C@H]1CC=C(C)CC1 [Alpha bisabolol, 1-methyl-4-(1,5-dimethyl-1-hydroxy-4(5)-hexenyl)-1-cyclohexene] | 6.64 ± 0.32 | 8.00 ± 1.61 | 64.23 ± 13.00 | 28.90 ± 9.58 | 979.50 ± 35.35 | 954.50 ± 70.71 | 313.43 ± 33.30 | 354.74 ± 37.03 | 1083.83 ± 115.59 | 648.55 ± 11.09 | 27.15 ± 2.99 | 28.30 ± 1.36
2 | CN(Cc1cnc2nc(N)nc(N)c2n1)c1ccc(C(=O)N[C@@H](CCC(=O)O)C(=O)O)cc1 [Methotrexate] |  | 4.82 ± 0.32 | 39.07 ± 7.53 | 19.39 ± 8.00 | 1042.00 ± 53.03 | 1004.50 ± 70.71 | 291.69 ± 34.42 | 187.35 ± 26.22 | 1282.15 ± 174.81 | 543.82 ± 78.75 | 29.08 ± 1.36 | 23.11 ± 1.08
